Data from patent US5130483A, “Isoprenoid derivatives and pharmaceutical preparations containing the same” (Terumo Kabushiki Kaisha, priority 1987, dated 1992).

What was measured:
[1] = biological target: T1, 5-lipoxygenase (Rattus norvegicus, UniProt P12527); assay: 5-Lipoxygenase-inhibiting activity (Test Example 2, radiolabeled arachidonic acid, TLC of 5-HETE); type: biochemical; details: RBL-1 cell supernatant, pH 7.4, 37° C., 15 min, radio-TLC of 5-HETE, read-out: 50% Inhibitory concentration
T1 construct: The supernatant is employed as an enzyme solution of a 5-lipoxygenase; endogenous in cells; host or cells: RBL-1 rat basophilic leukemia cells, sonicated, 15,000 rpm supernatant (crude, not purified)
T1 sequence (P12527 1-673): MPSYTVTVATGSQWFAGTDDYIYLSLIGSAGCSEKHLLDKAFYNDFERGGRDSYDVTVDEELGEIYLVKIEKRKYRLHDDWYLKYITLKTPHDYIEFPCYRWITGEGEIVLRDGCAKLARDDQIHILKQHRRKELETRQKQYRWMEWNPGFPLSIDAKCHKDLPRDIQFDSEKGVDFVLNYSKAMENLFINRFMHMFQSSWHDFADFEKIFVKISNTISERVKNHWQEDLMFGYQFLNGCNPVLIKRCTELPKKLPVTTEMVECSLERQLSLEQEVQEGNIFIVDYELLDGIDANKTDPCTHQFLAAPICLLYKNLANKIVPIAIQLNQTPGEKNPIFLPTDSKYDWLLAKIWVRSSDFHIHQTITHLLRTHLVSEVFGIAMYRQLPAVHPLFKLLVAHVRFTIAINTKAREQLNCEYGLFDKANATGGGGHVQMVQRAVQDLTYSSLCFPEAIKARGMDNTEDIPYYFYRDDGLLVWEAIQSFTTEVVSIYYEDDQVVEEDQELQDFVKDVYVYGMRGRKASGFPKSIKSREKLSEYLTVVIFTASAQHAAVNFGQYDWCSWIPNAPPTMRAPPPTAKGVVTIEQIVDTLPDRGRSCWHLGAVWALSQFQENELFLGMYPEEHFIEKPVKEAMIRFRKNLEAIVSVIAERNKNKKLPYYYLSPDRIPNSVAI
Description: A suspension of rat-origin basophilic leukemia cell strain RBL-1 in an Eagle basal medium (manufactured by Gbco Laboratories) containing 10 % FCS is cultivated in a 5% CO2 incubator at 37° C. The culture is then centrifuged at 4° C. to collect cells. The cells are re-suspended in a phosphate buffer solution at pH 7.4 to a cell density of 1.0 -3.0×10^7 cells/ml. The suspended cells are treated by an ultrasonic cell blender and then centrifuged at 15,000 rpm at 4° C. for 30 min. The supernant is employed as an enzyme solution of a 5-lipoxygenase. In test tubes are placed 20 μl of radiolabeled arachidonic acid (10 μl Ci/ml) and an isoprenoid derivative of the invention to be tested. To each of the test tubes are added 0.40 ml of phosphate buffer, 0.10 ml of the enzyme solution as prepared above and […] of a 100 mM CaCl2 (calcium chloride). The mixture is allowed to react at 37° C. for 15 min. To the reaction mixture, after ice-cooling, is added one drop of 1N HCl (hydrochloric acid), and the resulting mass is extracted with 2 ml of ethyl acetate. The extract is concentrated, and the concentrate is spotted and developed on a silica gel thin layer plate (Merck 60F254). Measurement of the inhibitory activity is accomplished by collecting the portion corresponding to 5-HETE (5-(s)-hydroxy-6,8,11,14-eicosatetraenoic acid), a 5-lipoxygenase product detected by a radio-thin layer chromatogram scanner (Dunnschicht-Scanner II LB2723, manufactured by Berthold) and measuring radioactivity by a liquid scintillation counter. The 5-lipoxygenase-inhibiting activity is determined by decrease in the production of said 5-lipoxygenase product.
(§1) 50% inhibitory concentration as referred to in Tables 1 and 2 means concentration of an isoprenoid derivative required for controlling the production of […] as described above to 50% by introducing said isoprenoid derivative when production of 5-HETE without isoprenoid derivative of the invention is taken as 100%.

[2] = system: stomach lesions (ulcer index) in male Wistar rats; assay: Anti-ulcer activity (ethanol-hydrochloric acid gastric lesions); type: in vivo, rat (male Wistar); details: 100 mg/kg, oral, 1 h before ethanol-hydrochloric acid; male Wistar rats fasted 24 h
Description: To male Wistar rats (weighing 150-200 g) fasted for 24 hours was administered orally an isoprenoid derivative of the invention. One hour later, ethanol-hydrochloric acid (containing 150 mM hydrochloric acid in 60% ethanol) was orally given in a volume of 0.5 ml/100 g bodyweight.
One hour later, the animals were sacrificed with ether. The stomach was excised and, after formalin treatment, measured for the length (mm) of lesions developed in glandular portions of the stomach. Total length of the lesions per animal was taken as ulcer index.
Percent inhibition of ulceration as referred to in the table is a value indicating the ulcer index for the rat without an isoprenoid derivative of the invention orally given minus the ulcer index for the orally administered rat divided by the ulcer index for the orally non-administered rat multiplied by 100.

[3] = biological target: T1, 5-lipoxygenase; assay: 5-Lipoxygenase-inhibiting activity (Test Example 1, HPLC of 5-HETE); type: biochemical; details: RBL-1 cell supernatant; 50 μg arachidonic acid; pH 7.4; 37° C., 15 min; HPLC peak of 5-HETE; read-out: 50% Inhibitory concentration
Description: A suspension of rat-origin basophilic leukemia cell strain RBL-1 in an Eagle basal medium (manufactured by Gibco Laboratories) containing 10% FCS is cultivated in an 5% CO2 incubator at 37° C. The culture is then centrifuged at 4° C. to collect cells. The cells are re-suspended in a phosphate buffer solution at pH 7.4 to a cell density of 1.0-3.0×10^7 cells/ml. The suspended cells are treated by an ultrasonic cell blender and then centrifuged at 15,000 rpm at 4° C. for 30 min. The supernatant is employed as an enzyme solution of a 5-lipoxygenase. In test tubes are placed 50 μg of arachdonic acid and an isoprenoid derivative of the invention to be tested. To each of the test tubes are added 0.30 ml of phosphate buffer, 0.20 ml of the enzyme solution as prepared above and 5 μl of a 100 mM CaCl2 (calcium chloride) solution. The mixture is allowed to react at 37° C. for 15 min. To the reaction mixture, after ice-cooling, is added one drop of 1N HCl (hydrochloric acid), and the resulting mass is extracted with 2 ml of ethyl acetate. The extract is concentrated to dryness followed by addition of 100 μl of methanol for use as a test specimen.
Said specimen is injected into octadecylsilane (ODS) reverse phase high performance liquid chromatography (HPLC), eluted with methanol - acetonitrile - water - acetic acid (15 : 45 : 35 : 0.01). Peak for 5-HETE (5-(s)-hydroxy-6,8,11,14-eicosatetraenoic acid), a 5-lipoxygenase product detected in approximately 25 min. is measured. The 5-lipoxygenase-inhibiting activity is determined by decrease in the peak for said 5-lipoxygenase product.
as §1

Structure (SMILES)	IC50 [1] [nM]	Percent inhibition of ulceration [2] [%]	IC50 [3] [nM]
COc1cc(/C=C/C(=O)OCC=C(C)C)ccc1O [Example 5, prenyl 4-hydroxy-3-methoxycinnamate]	3000		
COc1cc(/C=C/C=C/C(=O)CC/C=C(\C)CCC=C(C)C)ccc1O [Example 2, 9,13-dimethyl-1-(4'-hydroxy-3'-methoxyphenyl)-1,3,8,12-tetradecatetraen-5-one]		94.6	380
COc1cc(/C=C/C=C/C(=O)OC/C=C(\C)CCC=C(C)C)ccc1O [Example 8, geranyl 5-(4-hydroxy-3-methoxyphenyl)-2,4-pentadienoate]	1200		
COc1cc(/C=C/C=C/C(=O)OCC=C(C)C)ccc1O [Example 6, prenyl 5-(3-methoxy-4-hydroxyphenyl)-2,4-pentadienoate]	400		
COc1cc(/C=C/C=C/C(=O)CC/C=C(\C)CC/C=C(\C)CCC=C(C)C)ccc1O [Example 3, 1-(4'-hydroxy-3'-methoxyphenyl)-9,13,17-trimethyl-1,3,8,12,16-octadecapentaen-5-one]		85.0	800
COc1cc(/C=C/C(=O)NC/C=C(\C)CCC=C(C)C)ccc1O [Example 14, 4-hydroxy-3-methoxycinnamic acid geranylamide]	920		
CC(C)=CCC/C(C)=C/COC(=O)/C=C/C=C/c1ccc(O)c(O)c1 [Example 9, geranyl 5-(3,4-dihydroxyphenyl)-2,4-pentadienoate]	260		
CC(C)=CCC/C(C)=C/CNC(=O)/C=C/C=C/c1ccc(O)c(O)c1 [Example 15, 5-(3',4'-dihydroxyphenyl)pentadienoic acid geranylamide]	11		
COc1cc(/C=C/C=C/C(=O)NCC=C(C)C)ccc1O [Example 11, 5-(4'-hydroxy-3'methoxyphenyl)pentadienoic acid prenylamide]	650		
COc1cc(/C=C/C=C/C(=O)CCC=C(C)C)ccc1O [Example 1, 1-(4'-hydroxy-3'-methoxyphenyl)-9-methyl-1,3,8-decatrien-5-one]		79.3	500
CC(C)=CCOC(=O)/C=C/C=C/c1ccc(O)c(O)c1 [Example 7, prenyl 5-(3,4-dihydroxyphenyl)-2,4-pentadienoate]	26		
COc1cc(/C=C/C=C/C(=O)NC/C=C(\C)CCC=C(C)C)ccc1O [Example 12, 5-(4'-hydroxy-3-methoxyphenyl)pentadienoic acid geranylamide]	83		
COc1cc(/C=C/C=C/C(=O)NC/C=C(\C)CC/C=C(\C)CCC=C(C)C)ccc1O [Example 13, 5-(4'-hydroxy3'-methoxyphenyl)pentadienoic acid (E,E)-farnesylamide]	310		
CC(C)=CCCC(=O)/C=C/c1ccc(O)c(O)c1 [Example 4, 1-(3',4'-dihydroxyphenyl)-7-methyl-1,6-octadien-3-one]			80
